Columns and labels:
mouse deodenum = settings: 0.1 % of hydrogen peroxide; cited from earlier work
[1] = test system: Salmonella typhimurium strain TA 100; experiment: Mutagenicity / antimutagenic effect, preincubation Salmonella (Ames) test; settings: Salmonella typhimurium strain TA 100 (histidine-requiring), 48 h, pH 7.4
Procedure: • I) Measuring mutagenicity and the antimutagenic effect • (i) Method: • The preincubation method described in Sugimura & Nagao; Chemical Mutagens, Vol. 6, p. 41, 1981 was used. • (ii) Microorganism: • Histidine-requiring Salmonella typhimurium strain TA 100 (hereunder S. TA 100) was used. • (iii) Preparation of samples: • (a) Instant coffee: • Instant coffee powder was dissolved in distilled water. Predetermined amounts of catalase were also dissolved in distilled water, and 50 µl of each solution was mixed with an equal amount of the aqueous coffee solution. • (b) Regular coffee: • Roasted and ground coffee beans (20 g) were extracted with hot distilled water (250 ml), and the extract was filtered through coffee filter paper No. 12 manufactured by Kalita Co., Ltd. The extract was freeze-dried, and after measuring the weight of the dry product, it was dissolved in distilled water. Predetermined amounts of catalase were also dissolved in distilled water, and 50 pl of each solution was mixed with an equal amount of the aqueous solution of coffee concentrate. • (c) Catalase: • A pure isolate from calf liver as manufactured by P-L Biochemicals, Inc. was used. […] After incubation at 37°C for 48 hours, the number of colonies forming on the plate was counted as revertants.

Neurospora crassa = settings: cited from earlier work
human cells = settings: cited from earlier work

OO [hydrogen peroxide]
carcinogenicity (mouse deodenum): cause malignant tumors | mutagenicity to S. TA 100 [1]: 160 revertants/108 survivors/pmole | mutagenic to Neurospora crassa (Neurospora crassa): mutagenic | clastogenic to human cells (human cells): clastogenic
